In article PMC5652693, “Coupling to a cancer-selective heparan-sulfate-targeted branched peptide can by-pass breast cancer cell resistance to methotrexate” (Oncotarget, 2017):
“Also recorded” adds a separate entry of the source.

How the values were obtained:
[1] = test system: NT4 binding to MCF-7 cells; assay: Inhibition of NT4 binding by heparin or heparin binding proteins (flow cytometry), MCF-7; type: cell-based, human; conditions: 250 nM biotinylated NT4; heparin 20, 10 and 1 μg/ml or 1 μM Midkine or Apolipoprotein E4; 30 min, room temperature; Streptavidin-FITC
Method: (§1) All experiments were performed using 2 × 10^5 MCF-7 or MDA-MB 231 cells in 96 well U-bottom plates. All dilutions were performed in PBS, containing 5 mM EDTA and 0.5% BSA. 10,000 events were evaluated in a BD FACS Canto II or a BD FACS Calibur (Becton Dickinson, NJ USA). The results were analyzed by FCS Express 6 Flow cytometry software.
(§2) Inhibition of NT4 binding by heparin was carried out incubating cells with 250 nM biotinylated NT4 and various concentrations (20 μg/ml, 10 μg/ml and 1 μg/ml) of heparin for 30 min at room temperature. Inhibition of NT4 binding by heparin binding proteins was carried out incubating cells with 250 nM biotinylated NT4 and 1 μM Midkine or Apolipoprotein E4 for 30 min at room temperature. Cells were finally incubated with 1 μg/ml Streptavidin-FITC.

[2] = test system: NT4 binding to MDA-MB 231 cells; assay: Inhibition of NT4 binding by heparin or heparin binding proteins (flow cytometry), MDA-MB 231; type: cell-based, human; conditions: 250 nM biotinylated NT4; heparin 20, 10 and 1 μg/ml or 1 μM Midkine or Apolipoprotein E4; 30 min, room temperature; Streptavidin-FITC
Method: as §1, §2

[3] = test system: orthotopic model of breast cancer; set-up: method as in PMID 26626158; conditions: orthotopic model of breast cancer in mice, identical experimental conditions for conjugate and free drug; cited from earlier work
From the text: In previous studies we investigated the cancer selectivity of tetra-branched peptides containing the sequence of human neurotensin, which we named NT4. We developed theranostic molecules for tumor imaging or therapy by coupling NT4 to different functional units or liposomes.

[4] = test system: MCF-7 human breast adenocarcinoma cells; assay: Cytotoxicity (MTT growth inhibition) in MTX-sensitive MCF-7 cells; type: cell-based; conditions: MCF7, MCF-7, 5 × 10^3 cells per well, 6 days at 37°C, twice in triplicate (Figure 6: mean of six experiments ± SD)
Method: (§3) MCF-7 human breast adenocarcinoma, MDA-MB 231 human breast adenocarcinoma, T-24 human bladder carcinoma, PANC-1 human pancreatic carcinoma, HT29 human colon adenocarcinoma, A375 human melanoma, HT-1376 human bladder carcinoma and OVCAR-3 human ovarian carcinoma cells were grown in their recommended media supplemented with 10% fetal calf serum, 200 μg/ml glutamine, 100 μg/ml streptomycin, 60 μg/ml penicillin, and maintained at 37°C, 5% CO2. MDA-MB 231 was maintained at 37°C without CO2. Cell lines were purchased from ATCC.
(§4) MCF-7 and MDA-MB 231 cells were plated at a density of 5 × 10^3 per well in 96-well microplates. […] Cell growth was analyzed after 6 days of incubation at 37°C. Growth inhibition was assessed by 3-(4,5-dimethylthiazol-2-yl)-2,5-diphenyltetrazolium bromide (MTT). Cytotoxicity of drug-conjugated NT4 was compared with that of the corresponding free drugs. The experiment was performed twice in triplicate. EC50 values were calculated by non-linear regression analysis using Graph Pad Prism 5.03 software.

[5] = test system: MDA-MB 231 human breast adenocarcinoma cells; assay: Cytotoxicity (MTT growth inhibition) in MTX-resistant MDA-MB 231 cells; type: cell-based; conditions: MDA-MB 231, 5 × 10^3 cells per well, 6 days at 37°C, twice in triplicate (Figure 6: mean of six experiments ± SD)
Method: as §3, §4

[6] = test system: T-24 human bladder carcinoma cells; assay: MTX cytotoxicity screening, T-24; type: cell-based
Method: as §3
as §4, with “software. Values from untreated controls gave 100% cell viability.” for “software.”

[7] = test system: PANC-1 human pancreatic carcinoma cells; assay: MTX cytotoxicity screening, PANC-1; type: cell-based
Method: as §3
as §4, with “software. Values from untreated controls gave 100% cell viability.” for “software.”

[8] = test system: HT29 human colon adenocarcinoma cells; assay: MTX cytotoxicity screening, HT29; type: cell-based; conditions: HT-29
Method: as §3
as §4, with “software. Values from untreated controls gave 100% cell viability.” for “software.”

[9] = test system: A375 human melanoma cells; assay: MTX cytotoxicity screening, A375; type: cell-based; conditions: A-375
Method: as §3
as §4, with “software. Values from untreated controls gave 100% cell viability.” for “software.”

[10] = test system: HT-1376 human bladder carcinoma cells; assay: MTX cytotoxicity screening, HT-1376; type: cell-based
Method: as §3
as §4, with “software. Values from untreated controls gave 100% cell viability.” for “software.”

[11] = test system: OVCAR-3 human ovarian carcinoma cells; assay: MTX cytotoxicity screening, OVCAR-3; type: cell-based
Method: as §3
as §4, with “software. Values from untreated controls gave 100% cell viability.” for “software.”

MCF-7 cells = assay: Cytotoxicity with and without heparin, MCF-7; type: cell-based, human; conditions: MCF-7, 610 pM to 10 μM compound in the presence of 1 μM heparin, 6 days at 37°C, MTT
Method: as §4

MDA-MB 231 cells = assay: Cytotoxicity with and without heparin, MDA-MB 231; type: cell-based, human; conditions: MDA-MB 231, 610 pM to 10 μM compound in the presence of 1 μM heparin, 6 days at 37°C, MTT
Method: as §4

[12] = test system: MCF-7 and MDA-MB 231 cells; assay: Transporter-mediated efflux of Rho 123 by flow cytometry; type: cell-based, human; conditions: 1 μM Rho 123 for 10 minutes, washed, fluorescence monitored 0-120 minutes by flow cytometry
Method: as §1
To analyze active cell drug export mechanisms, MCF-7 and MDA-MB 231 cells were exposed to 1 μM Rho 123 for 10 minutes, then washed twice with PBS-5 mM EDTA-[…] to remove excess of Rho 123, and fluorescence was monitored immediately (T0) and after 10, 20, 30, 45, 60, 90 and 120 minutes. Each step was followed by three washes in PBS-5 mM EDTA-0.5% BSA. P values were calculated using two-tailed Student's t-test (99% confidence interval) using Graph Pad Prism 5.03 software.

With “Apolipoprotein E4: heparin binding protein” the “inhibition of NT4 binding to MCF-7 cells” value [1] was “inhibited” and the “inhibition of NT4 binding to MDA-MB 231 cells” value [2] was “inhibited”.

In the case of `CC(=O)O[C@H]1C(=O)[C@@]2(C)[C@H]([C@H](OC(=O)c3ccccc3)[C@]3(O)C[C@H](OC(=O)[C@H](O)[C@@H](NC(=O)c4ccccc4)c4ccccc4)C(C)=C1C3(C)C)[C@]1(OC(C)=O)CO[C@@H]1C[C@@H]2O` [paclitaxel], the tumor regression [3] is given as “not achieved”.

Work on `CN(Cc1cnc2nc(N)nc(N)c2n1)c1ccc(C(=O)N[C@@H](CCC(=O)O)C(=O)O)cc1` [MTX, methotrexate] yielded an EC50 [4] of 25.8 nM, an EC50 [5] of 506 nM and an EC50 [6] of 80.7 nM. The EC50 [7] was 23.4 nM, the EC50 [8] was 60.9 nM and the EC50 [9] was 33.7 nM. The EC50 [10] was 171 nM, the EC50 [11] was 89.5 nM and the “effect of heparin on cytotoxicity” value (MCF-7 cells) was “did not affect”. The “effect of heparin on cytotoxicity” value (MDA-MB 231 cells) was “did not affect”.

In the case of heparin, the “inhibition of NT4 binding to MCF-7 cells” value [1] is reported as “inhibited; also recorded: abolished” and the “inhibition of NT4 binding to MDA-MB 231 cells” value [2] is reported as “inhibited; also recorded: abolished”.

With `COC(=O)c1ccccc1-c1c2ccc(=N)cc-2oc2cc(N)ccc12` [Rho 123, Rhodamine 123] the “drug efflux (Rho 123 signal decrease) compared between cell lines” value [12] was “comparable in the two cell lines”.

B1: Midkine: heparin binding protein (protein, UniProt P21741 21-143, looked up)
Midkine: VAKKKDKVKKGGPGSECAEWAWGPCTPSSKDCGVGFREGTCGAQTQRIRCRVPCNWKKEFGADCKYKFENWGACDGGTGTKVRQGTLKKARYNAQCQETIRVTKPCTPKTKAKAKAKKGKGKD
For B1, the “inhibition of NT4 binding to MCF-7 cells” value [1] was “inhibited” and the “inhibition of NT4 binding to MDA-MB 231 cells” value [2] was “inhibited”.
